{"source": "ChEMBL document CHEMBL3885881", "about": "“DrugMatrix”", "organism": "Rattus norvegicus", "test": "DrugMatrix - Regimen: Daily Repeat", "assay_type": "toxicity, organism-based, Sprague-Dawley", "design": "regimen Daily Repeat, gender Male, age 6-8 weeks", "settings": "in vivo, po, […], route oral GAVAGE, dose 0.043 mg/Kg, dose level High, vehicle .5 % CMC; for ABSOLUTE BASOPHIL / ABSOLUTE EOSINOPHIL / ABSOLUTE LYMPHOCYTE / ABSOLUTE MONOCYTE / ABSOLUTE SEGMENTED NEUTROPHIL / BASOPHIL / EOSINOPHIL / ERYTHROCYTE COUNT / HEMATOCRIT / HEMOGLOBIN / LEUKOCYTE COUNT / LYMPHOCYTE / MEAN CORPUSCULAR HEMOGLOBIN / MEAN CORPUSCULAR HEMOGLOBIN CONCENTRATION / MEAN CORPUSCULAR VOLUME / MONOCYTE / NEUTROPHIL / NUCLEATED RED BLOOD CELLS / PLATELET COUNT: tissue Blood; for ALANINE AMINOTRANSFERASE / ALBUMIN / ALKALINE PHOSPHATASE / ASPARTATE AMINOTRANSFERASE / BLOOD UREA NITROGEN / CARBON DIOXIDE / CHLORIDE / CHOLESTEROL / CREATINE PHOSPHOKINASE / CREATININE / GLUCOSE / LACTATE DEHYDROGENASE / LIPASE / PHOSPHORUS / POTASSIUM / SODIUM / TOTAL BILIRUBIN / TOTAL PROTEIN / URIC ACID: tissue Plasma"}
{"smiles": "C=C1/C(=C\\C=C2/CCC[C@]3(C)[C@@H]([C@H](C)CCCC(C)C)CC[C@@H]23)C[C@@H](O)C[C@@H]1O", "note": "[ALFACALCIDOL]", "values": [{"measurement": "ABSOLUTE BASOPHIL", "setting": "72 h, time 3 day", "value": 0, "unit": "CELLS/uL"}, {"measurement": "ABSOLUTE EOSINOPHIL", "setting": "72 h, time 3 day", "value": 333, "unit": "CELLS/uL"}, {"measurement": "ABSOLUTE LYMPHOCYTE", "setting": "72 h, time 3 day", "value": 10082, "unit": "CELLS/uL"}, {"measurement": "ABSOLUTE MONOCYTE", "setting": "72 h, time 3 day", "value": 537.33, "unit": "CELLS/uL"}, {"measurement": "ABSOLUTE SEGMENTED NEUTROPHIL", "setting": "72 h, time 3 day", "value": 2481, "unit": "CELLS/uL"}, {"measurement": "BASOPHIL", "setting": "72 h, time 3 day", "value": 0, "unit": "%"}, {"measurement": "EOSINOPHIL", "setting": "72 h, time 3 day", "value": 2.33, "unit": "%"}, {"measurement": "ERYTHROCYTE COUNT", "setting": "72 h, time 3 day", "value": 6, "unit": "x10E6/uL"}, {"measurement": "HEMATOCRIT", "setting": "72 h, time 3 day", "value": 36.53, "unit": "%"}, {"measurement": "HEMOGLOBIN", "setting": "72 h, time 3 day", "value": 13.9, "unit": "G/DL"}, {"measurement": "LEUKOCYTE COUNT", "setting": "72 h, time 3 day", "value": 13.43, "unit": "x10E3/uL"}, {"measurement": "LYMPHOCYTE", "setting": "72 h, time 3 day", "value": 74, "unit": "%"}, {"measurement": "MEAN CORPUSCULAR HEMOGLOBIN", "setting": "72 h, time 3 day", "value": 23.2, "unit": "pg"}, {"measurement": "MEAN CORPUSCULAR HEMOGLOBIN CONCENTRATION", "setting": "72 h, time 3 day", "value": 38.07, "unit": "G/DL"}, {"measurement": "MEAN CORPUSCULAR VOLUME", "setting": "72 h, time 3 day", "value": 60.97, "unit": "fL"}, {"measurement": "MONOCYTE", "setting": "72 h, time 3 day", "value": 4, "unit": "%"}, {"measurement": "NEUTROPHIL", "setting": "72 h, time 3 day", "value": 19.67, "unit": "%"}, {"measurement": "NUCLEATED RED BLOOD CELLS", "setting": "72 h, time 3 day", "value": "0.33 /100WBC"}, {"measurement": "PLATELET COUNT", "setting": "72 h, time 3 day", "value": 1182, "unit": "x10E3/uL"}, {"measurement": "ALANINE AMINOTRANSFERASE", "setting": "72 h, time 3 day", "value": 54.33, "unit": "u/L"}, {"measurement": "ALBUMIN", "setting": "72 h, time 3 day", "value": 3.93, "unit": "G/DL"}, {"measurement": "ALKALINE PHOSPHATASE", "setting": "72 h, time 3 day", "value": 234.67, "unit": "u/L"}, {"measurement": "ASPARTATE AMINOTRANSFERASE", "setting": "72 h, time 3 day", "value": 99, "unit": "u/L"}, {"measurement": "BLOOD UREA NITROGEN", "setting": "72 h, time 3 day", "value": 27.67, "unit": "mg/dL"}, {"measurement": "CARBON DIOXIDE", "setting": "72 h, time 3 day", "value": 26.33, "unit": "mmol/L"}, {"measurement": "CHLORIDE", "setting": "72 h, time 3 day", "value": 99.67, "unit": "MEQ/L"}, {"measurement": "CHOLESTEROL", "setting": "72 h, time 3 day", "value": 75.33, "unit": "mg/dL"}, {"measurement": "CREATINE PHOSPHOKINASE", "setting": "72 h, time 3 day", "value": 379.67, "unit": "u/L"}, {"measurement": "CREATININE", "setting": "72 h, time 3 day", "value": 0.33, "unit": "mg/dL"}, {"measurement": "GLUCOSE", "setting": "72 h, time 3 day", "value": 174.33, "unit": "mg/dL"}, {"measurement": "LACTATE DEHYDROGENASE", "setting": "72 h, time 3 day", "value": 344, "unit": "u/L"}, {"measurement": "LIPASE", "setting": "72 h, time 3 day", "value": 8.33, "unit": "u/L"}, {"measurement": "PHOSPHORUS", "setting": "72 h, time 3 day", "value": 12.9, "unit": "mg/dL"}, {"measurement": "POTASSIUM", "setting": "72 h, time 3 day", "value": 5.6, "unit": "MEQ/L"}, {"measurement": "SODIUM", "setting": "72 h, time 3 day", "value": 142.27, "unit": "MEQ/L"}, {"measurement": "TOTAL BILIRUBIN", "setting": "72 h, time 3 day", "value": 0.2, "unit": "mg/dL"}, {"measurement": "TOTAL PROTEIN", "setting": "72 h, time 3 day", "value": 5.87, "unit": "G/DL"}, {"measurement": "URIC ACID", "setting": "72 h, time 3 day", "value": 1.57, "unit": "mg/dL"}, {"measurement": "ABSOLUTE BASOPHIL", "setting": "120 h, time 5 day", "value": 0, "unit": "CELLS/uL"}, {"measurement": "ABSOLUTE EOSINOPHIL", "setting": "120 h, time 5 day", "value": 110, "unit": "CELLS/uL"}, {"measurement": "ABSOLUTE LYMPHOCYTE", "setting": "120 h, time 5 day", "value": 15770.33, "unit": "CELLS/uL"}, {"measurement": "ABSOLUTE MONOCYTE", "setting": "120 h, time 5 day", "value": 383.67, "unit": "CELLS/uL"}, {"measurement": "ABSOLUTE SEGMENTED NEUTROPHIL", "setting": "120 h, time 5 day", "value": 2702.67, "unit": "CELLS/uL"}, {"measurement": "BASOPHIL", "setting": "120 h, time 5 day", "value": 0, "unit": "%"}, {"measurement": "EOSINOPHIL", "setting": "120 h, time 5 day", "value": 1, "unit": "%"}, {"measurement": "ERYTHROCYTE COUNT", "setting": "120 h, time 5 day", "value": 6.37, "unit": "x10E6/uL"}, {"measurement": "HEMATOCRIT", "setting": "120 h, time 5 day", "value": 38.77, "unit": "%"}, {"measurement": "HEMOGLOBIN", "setting": "120 h, time 5 day", "value": 14.5, "unit": "G/DL"}, {"measurement": "LEUKOCYTE COUNT", "setting": "120 h, time 5 day", "value": 18.97, "unit": "x10E3/uL"}, {"measurement": "LYMPHOCYTE", "setting": "120 h, time 5 day", "value": 83.33, "unit": "%"}, {"measurement": "MEAN CORPUSCULAR HEMOGLOBIN", "setting": "120 h, time 5 day", "value": 22.77, "unit": "pg"}, {"measurement": "MEAN CORPUSCULAR HEMOGLOBIN CONCENTRATION", "setting": "120 h, time 5 day", "value": 37.43, "unit": "G/DL"}, {"measurement": "MEAN CORPUSCULAR VOLUME", "setting": "120 h, time 5 day", "value": 60.83, "unit": "fL"}, {"measurement": "MONOCYTE", "setting": "120 h, time 5 day", "value": 2, "unit": "%"}, {"measurement": "NEUTROPHIL", "setting": "120 h, time 5 day", "value": 13.67, "unit": "%"}, {"measurement": "NUCLEATED RED BLOOD CELLS", "setting": "120 h, time 5 day", "value": "0 /100WBC"}, {"measurement": "PLATELET COUNT", "setting": "120 h, time 5 day", "value": 1065.33, "unit": "x10E3/uL"}, {"measurement": "ALANINE AMINOTRANSFERASE", "setting": "120 h, time 5 day", "value": 53.67, "unit": "u/L"}, {"measurement": "ALBUMIN", "setting": "120 h, time 5 day", "value": 4.5, "unit": "G/DL"}, {"measurement": "ALKALINE PHOSPHATASE", "setting": "120 h, time 5 day", "value": 245.67, "unit": "u/L"}, {"measurement": "ASPARTATE AMINOTRANSFERASE", "setting": "120 h, time 5 day", "value": 109.33, "unit": "u/L"}, {"measurement": "BLOOD UREA NITROGEN", "setting": "120 h, time 5 day", "value": 18, "unit": "mg/dL"}, {"measurement": "CARBON DIOXIDE", "setting": "120 h, time 5 day", "value": 27, "unit": "mmol/L"}, {"measurement": "CHLORIDE", "setting": "120 h, time 5 day", "value": 101.67, "unit": "MEQ/L"}, {"measurement": "CHOLESTEROL", "setting": "120 h, time 5 day", "value": 74.33, "unit": "mg/dL"}, {"measurement": "CREATINE PHOSPHOKINASE", "setting": "120 h, time 5 day", "value": 756, "unit": "u/L"}, {"measurement": "CREATININE", "setting": "120 h, time 5 day", "value": 0.12, "unit": "mg/dL"}, {"measurement": "GLUCOSE", "setting": "120 h, time 5 day", "value": 155.33, "unit": "mg/dL"}, {"measurement": "LACTATE DEHYDROGENASE", "setting": "120 h, time 5 day", "value": 946.67, "unit": "u/L"}, {"measurement": "LIPASE", "setting": "120 h, time 5 day", "value": 8.33, "unit": "u/L"}, {"measurement": "PHOSPHORUS", "setting": "120 h, time 5 day", "value": 12.47, "unit": "mg/dL"}, {"measurement": "POTASSIUM", "setting": "120 h, time 5 day", "value": 4.95, "unit": "MEQ/L"}, {"measurement": "SODIUM", "setting": "120 h, time 5 day", "value": 144.83, "unit": "MEQ/L"}, {"measurement": "TOTAL BILIRUBIN", "setting": "120 h, time 5 day", "value": 0.1, "unit": "mg/dL"}, {"measurement": "TOTAL PROTEIN", "setting": "120 h, time 5 day", "value": 6.33, "unit": "G/DL"}, {"measurement": "URIC ACID", "setting": "120 h, time 5 day", "value": 1.5, "unit": "mg/dL"}]}
